Assay results reported in patent publication US8138205B2, “Heteroarylalkoxy-substituted quinolone inhibitors of PDE4” (Kalypsys, Inc., priority 2006, dated 2012).

Tests used:
[1] = Solubility Protocol; format: physicochemical; details: aqueous buffer, thermodynamic from solid; pH 7.4, 0.1 M sodium phosphate buffer
Description: About 5 mg of a compound was mixed with 500 μL of pH 7.4, 0.1 M sodium phosphate buffer. The mixture was adjusted to the original pH of 7.4 and then mixed overnight or longer via rotary mixing. The sample was checked for pH and then filtered through a 0.45 μm filter. If the pH drifted away, the sample was adjusted to its original pH and mixed for at least 15 minutes before filtration. The filtrate was analyzed using HPLC.

[2] = biological target: T1, PDE4B (Homo sapiens, UniProt Q07343); test: PDE/AK Biological Activity Assay (coupled PDE/adenylate kinase bioluminescent assay); format: biochemical; details: catalytic domain of PDE4B, read-out: PDE4 Enzyme IC50
T1 construct: hex-histidine (His6) (N); made in house
Text: Phosphodiesterases regulate the activity of the second messenger cyclic adenosine monophosphate (cAMP) by hydrolyzing cAMP to adenosine monophosphate (AMP). We developed a coupled PDE/AK bioluminescent high-throughput assay to measure the activity of phosphodiesterases. In the PDE/AK assay, the AMP produced from the hydrolysis of cAMP by phosphodiesterase is converted to adenosine diphosphate (ADP) by the phosphotransferase activity of adenylate kinase (also known as ADK or myokinase). Adenylate kinase will catalyze the conversion of 1 mole of AMP and 1 mole of ATP into 2 moles of ADP. Thus the conversion of AMP to ADP will result in the subsequent loss of ATP. The decrease in ATP concentration can be monitored as light output using luciferase in a reaction that requires ATP to produce light. The PDE/AK assay uses luciferase, which catalyzes the production of light from ATP present in the reaction mix. The amount of emitted light is inversely proportional to the level of AMP present in the reaction. Test compounds are incubated with the phosphodiesterases and phosphodiesterase inhibitors will decrease the rate of cAMP hydrolysis and decrease the subsequent production of AMP. Thus phosphodiesterase inhibitors will decrease the conversion of ATP to ADP and result in the greatest emission of light.
Compounds may be screened for functional potency in in vitro biochemical assays for their ability to inhibit the activity of phosphodiesterase (PDE) enzymes. A coupled PDE/AK assay was utilized to measure the inhibitory activity of compounds on PDE isoforms. The catalytic domain of PDE4B was fused to an amino-terminus hex-histidine affinity tag and purified. PDE4B enzyme was incubated with compounds for 10 minutes. Cyclic AMP substrate, ATP and adenylate kinase were then added to the PDE enzyme mix and incubated for 45 minutes at room temperature. A commercial ATP detection assay, Perkin Elmer's easyLite ATP detection reagent, was then added to measure the relative amount of ATP present in the reaction. After 10 minute incubation, the luminescent signal was quantitated with either the Perkin Elmer Viewlux or Molecular Devices Acquest or Analyst. Roflumilast and Rolipram are the positive controls used in the assay.

T1 sequence (Q07343 330-659 limits assumed, species assumed): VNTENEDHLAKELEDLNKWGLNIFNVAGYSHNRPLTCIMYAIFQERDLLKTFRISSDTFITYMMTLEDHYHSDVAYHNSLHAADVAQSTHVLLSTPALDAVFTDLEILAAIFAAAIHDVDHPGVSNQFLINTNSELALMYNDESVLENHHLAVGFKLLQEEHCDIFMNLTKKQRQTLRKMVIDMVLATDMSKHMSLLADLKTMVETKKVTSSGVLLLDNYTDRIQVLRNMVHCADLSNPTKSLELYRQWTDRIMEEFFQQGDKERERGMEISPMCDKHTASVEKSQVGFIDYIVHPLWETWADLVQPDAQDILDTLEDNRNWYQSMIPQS

| solubility [1] | IC50 [2] | Structure (SMILES) |
| --- | --- | --- |
| – | < 1 µM | CCN1CCN(CCCCCCOc2c(OC)ccc3c(Nc4c(Cl)cncc4Cl)cc(=O)[nH]c23)CC1 [Example 23, 4-(3,5-dichloropyridin-4-ylamino)-8-(6-(4-ethylpiperazin-1-yl)hexyloxy)-7-methoxyquinolin-2(1H)-one] |
| – | < 1 µM | COc1ccc2c(Nc3c(Cl)cncc3Cl)cc(=O)[nH]c2c1OCCCCCCN(C)CCN(C)C [Example 24, 4-(3,5-dichloropyridin-4-ylamino)-8-(6-((2-(dimethylamino)ethyl)(methyl)amino)hexyloxy)-7-methoxyquinolin-2(1H)-one] |
| ≥ 1000 µg/mL | < 1 µM | COc1ccc2c(Nc3c(Cl)cncc3Cl)cc(=O)[nH]c2c1OCCCCCCN1CCCNCC1 [Example 25, 8-(6-(1,4-Diazepan-1-yl)hexyloxy)-4-(3,5-dichloropyridin-4-ylamino)-7-methoxyquinolin-2(1H)-one] |
| ≥ 1000 µg/mL | < 1 µM | COc1ccc2c(Nc3c(Cl)cncc3Cl)cc(=O)[nH]c2c1OCCCCCCN1CCCN(C)CC1 [Example 26, 4-(3,5-Dichloropyridin-4-ylamino)-7-methoxy-8-(6-(4-methyl-1,4-diazepan-1-yl)hexyloxy)quinolin-2(1H)-one] |
| ≥ 1000 µg/mL | < 1 µM | COc1ccc2c(Nc3c(Cl)cncc3Cl)cc(=O)[nH]c2c1OCCCCCCN(C)CCCN(C)C [Example 27, 4-(3,5-Dichloropyridin-4-ylamino)-8-(6-((3-(dimethylamino)propyl)(methyl)amino)hexyloxy)-7-methoxyquinolin-2(1H)-one] |
| ≥ 1000 µg/mL | < 1 µM | COc1ccc2c(Nc3c(Cl)cncc3Cl)cc(=O)[nH]c2c1OCCCCCCN [Example 28, 8-(6-Aminohexyloxy)-4-(3,5-dichloropyridin-4-ylamino)-7-methoxyquinolin-2(1H)-one] |
| ≥ 1000 µg/mL | < 1 µM | COc1ccc2c(Nc3c(Cl)cncc3Cl)cc(=O)[nH]c2c1OCCCCCCNCCO [Example 29, 4-(3,5-Dichloropyridin-4-ylamino)-8-(6-(2-hydroxyethylamino)hexyloxy)-7-methoxyquinolin-2(1H)-one] |
| ≥ 1000 µg/mL | < 1 µM | COc1ccc2c(Nc3c(Cl)cncc3Cl)cc(=O)[nH]c2c1OCCCCCCN(C)CCO [Example 30, 4-(3,5-Dichloropyridin-4-ylamino)-8-(6-((2-hydroxyethyl)(methyl)amino)hexyloxy)-7-methoxyquinolin-2(1H)-one] |
| – | < 1 µM | COc1ccc2c(Nc3c(Cl)cncc3Cl)cc(=O)[nH]c2c1OCCCCCCN(CCO)CCO [Example 31, 8-(6-(Bis(2-hydroxyethyl)amino)hexyloxy)-4-(3,5-dichloropyridin-4-ylamino)-7-methoxyquinolin-2(1H)-one] |
| ≥ 1000 µg/mL | < 1 µM | COc1ccc2c(Nc3c(Cl)cncc3Cl)cc(=O)[nH]c2c1OCCCCCCNCCCO [Example 32, 4-(3,5-Dichloropyridin-4-ylamino)-8-(6-(3-hydroxypropylamino)hexyloxy)-7-methoxyquinolin-2(1H)-one] |
| ≥ 1000 µg/mL | < 1 µM | COc1ccc2c(Nc3c(Cl)cncc3Cl)cc(=O)[nH]c2c1OCCCCCCN(C)CCCO [Example 33, 4-(3,5-Dichloropyridin-4-ylamino)-8-(6-((3-hydroxypropyl)(methyl)amino)hexyloxy)-7-methoxyquinolin-2(1H)-one] |
| – | < 1 µM | COc1ccc2c(Nc3c(C)cncc3C)cc(=O)[nH]c2c1OCCCCCCN1CCN(C)CC1 [Example 34, 4-(3,5-Dimethylpyridin-4-ylamino)-7-methoxy-8-(6-(4-methylpiperazin-1-yl)hexyloxy)quinolin-2(1H)-one] |
| ≥ 1000 µg/mL | < 1 µM | COc1ccc2c(Nc3c(C)cncc3C)cc(=O)[nH]c2c1OCCCCCCN1CCCCC1 [Example 36, 4-(3,5-Dimethylpyridin-4-ylamino)-7-methoxy-8-(6-(piperidin-1-yl)hexyloxy)quinolin-2(1H)-one] |
| ≥ 1000 µg/mL | < 1 µM | COc1ccc2c(Nc3c(C)cncc3C)cc(=O)[nH]c2c1OCCCCCCN1CCCC1 [Example 37, 4-(3,5-Dimethylpyridin-4-ylamino)-7-methoxy-8-(6-(pyrrolidin-1-yl)hexyloxy)quinolin-2(1H)-one] |
| – | < 1 µM | COc1ccc2c(Nc3c(Cl)cncc3Cl)cc(=O)[nH]c2c1OCCCCCCNC(=N)N [Example 63, 1-(6-(4-(3,5-dichloropyridin-4-ylamino)-7-methoxy-2-oxo-1,2-dihydroquinolin-8-yloxy)hexyl)guanidine] |
| – | < 1 µM | COc1ccc2c(Nc3c(C)cncc3C)cc(=O)[nH]c2c1OCCCO [Example 81, 4-(3,5-dimethylpyridin-4-ylamino)-8-(3-hydroxypropoxy)-7-methoxyquinolin-2(1H)-one] |
| – | < 1 µM | COc1ccc2c(Nc3c(C)cncc3C)cc(=O)[nH]c2c1OCCCCCO [Example 83, 4-(3,5-dimethylpyridin-4-ylamino)-8-(5-hydroxypentyloxy)-7-methoxyquinolin-2(1H)-one] |
| – | < 1 µM | COc1ccc2c(Nc3c(C)cncc3C)cc(=O)[nH]c2c1OCCCCCCO [Example 84, 4-(3,5-dimethylpyridin-4-ylamino)-8-(6-hydroxyhexyloxy)-7-methoxyquinolin-2(1H)-one] |
| – | < 1 µM | COc1ccc2c(Nc3c(C)cncc3C)cc(=O)[nH]c2c1OCCCc1nn[nH]n1 [Example 85, 8-(3-(2H-tetrazol-5-yl)propoxy)-4-(3,5-dimethylpyridin-4-ylamino)-7-methoxyquinolin-2(1H)-one] |
| – | < 1 µM | COc1ccc2c(Nc3c(C)cncc3C)cc(=O)[nH]c2c1OCCCCCc1nn[nH]n1 [Example 87, 8-(5-(2H-tetrazol-5-yl)pentyloxy)-4-(3,5-dimethylpyridin-4-ylamino)-7-methoxyquinolin-2(1H)-one] |
| – | < 1 µM | COc1ccc2c(Nc3c(C)cncc3C)cc(=O)[nH]c2c1OCCCCCCc1nn[nH]n1 [Example 88, 8-(6-(2H-tetrazol-5-yl)hexyloxy)-4-(3,5-dimethylpyridin-4-ylamino)-7-methoxyquinolin-2(1H)-one] |
| – | < 1 µM | COc1ccc2c(Nc3c(Cl)cncc3Cl)cc(=O)[nH]c2c1OCCCCC(=O)NCC(=O)O [Example 94, 2-(5-(4-(3,5-dichloropyridin-4-ylamino)-7-methoxy-2-oxo-1,2-dihydroquinolin-8-yloxy)pentanamido)acetic acid] |
| – | < 1 µM | COc1ccc2c(Nc3c(Cl)cncc3Cl)cc(=O)[nH]c2c1OCCCCC(=O)N[C@@H](Cc1c[nH]cn1)C(=O)O [Example 95, (S)-2-(5-(4-(3,5-dichloropyridin-4-ylamino)-7-methoxy-2-oxo-1,2-dihydroquinolin-8-yloxy)pentanamido)-3-(1H-imidazol-4-yl)propanoic acid] |
| – | < 1 µM | COc1ccc2c(Nc3c(Cl)cncc3Cl)cc(=O)[nH]c2c1OCCCOCCOCCOCCO [Example 96, 4-(3,5-dichloropyridin-4-ylamino)-8-(3-(2-(2-(2-hydroxyethoxy)ethoxy)ethoxy)propoxy)-7-methoxyquinolin-2(1H)-one] |
| – | < 1 µM | COCCOCCOCCOCCCOc1c(OC)ccc2c(Nc3c(Cl)cncc3Cl)cc(=O)[nH]c12 [Example 97, 8-(2,5,8,11-tetraoxatetradecan-14-yloxy)-4-(3,5-dichloropyridin-4-ylamino)-7-methoxyquinolin-2(1H)-one] |
| – | < 1 µM | COc1ccc2c(Nc3c(Cl)cncc3Cl)cc(=O)[nH]c2c1OCCCOCCOCCO [Example 98, 4-(3,5-dichloropyridin-4-ylamino)-8-(3-(2-(2-hydroxyethoxy)ethoxy)propoxy)-7-methoxyquinolin-2(1H)-one] |

| Structure (SMILES) | solubility [1] | IC50 [2] |
| --- | --- | --- |
| COc1ccc2c(Nc3c(C)cncc3C)cc(=O)[nH]c2c1OCC(C)C [Example 12, 4-(3,5-Dimethylpyridin-4-ylamino)-8-isobutoxy-7-methoxyquinolin-2(1H)-one] | ≥ 1000 µg/mL | – |
| COc1ccc2c(Nc3c(C)cncc3C)cc(=O)[nH]c2c1OCCCCN(C)C [Example 44, 8-(4-(dimethylamino)butoxy)-4-(3,5-dimethylpyridin-4-ylamino)-7-methoxyquinolin-2(1H)-one] | – | < 1 µM |
| COc1ccc2c(Nc3c(C)cncc3C)cc(=O)[nH]c2c1OCCCCO [Example 82, 4-(3,5-dimethylpyridin-4-ylamino)-8-(4-hydroxybutoxy)-7-methoxyquinolin-2(1H)-one] | – | < 1 µM |
| COc1ccc2c(Nc3c(C)cncc3C)cc(=O)[nH]c2c1OCCCCc1nn[nH]n1 [Example 86, 8-(4-(2H-tetrazol-5-yl)butoxy)-4-(3,5-dimethylpyridin-4-ylamino)-7-methoxyquinolin-2(1H)-one] | – | < 1 µM |
